Assays:
[1] = system: E13.5 embryonic SMG epithelia; assay: Embryonic epithelial rudiment cultures; format: cell-based, mouse
Text: Embryonic epithelial rudiment cultures: Epithelia and mesenchyme were separated using dispase treatment and mechanical dissection and cultured in a drop of laminin on a nucleopore filter over serum-free DMEM/F12 containing holotransferrin and ascorbic acid (complete media) as described for the E13 submandibular gland (Steinberg, Z., Myers, C., Heim, V. M., Lathrop, C. A., Rebustini, I. T., Stewart, J. S., Larsen, M., and Hoffman, M. P. (2005) FGFR2b signaling regulates ex vivo submandibular gland epithelial cell proliferation and branching morphogenesis. Development (Cambridge, England) 132, 1223-1234). Epithelia were cultured with 400 ng/ml FGF10 (R&D Systems) and 0.5 μl/ml heparin sulfate (Sigma Aldrich) in the presence or absence of 25-200 μM ALDH341 or vehicle (PEG) and were subjected to RNA isolation or fixed for immunostaining after 24-48 h.
N=6-7 epithelia per group.
[…] confocal section of all three markers (top) and averaged confocal sections of c-KIT only (bottom).
Samples were tested in triplicate.
Immunohistochemistry: Embryonic rudiment immunofluorescence analysis has been previously described in, Knox, S. M., Lombaert, I. M., Reed, X., Vitale-Cross, L., Gutkind, J. S., and Hoffman, M. P. (2010) Parasympathetic innervation maintains epithelial progenitor cells during salivary organogenesis. Science (New York, N.Y.) 329, 1645-1647. In brief, tissue was fixed with 4% PFA for 20-30 min followed by permeabilizing with 0.1-0.3% Triton-X. Tissue was blocked overnight at 4° C. with 10% Donkey Serum (Jackson Laboratories), 1% BSA (Sigma Aldrich), and MOM IgG-blocking reagent (Vector Laboratories) in 0.01% PBS-Tween-20. SGs were incubated with primary antibodies overnight at 4° C.: rabbit anti-cKIT (1:200, Santa Cruz Biotech, M14), and rat anti-E-cadherin (1:300, Life Technologies, 13-1900). Antibodies were detected using Cy2-, Cy3- or Cy5-conjugated secondary Fab fragment antibodies (Jackson Laboratories) and nuclei stained using Hoescht 33342 (1:1000, Sigma Aldrich). Fluorescence was analyzed using a Leica Sp5 confocal microscope and NIH ImageJ software.
qPCR: RNA was isolated from whole tissue using RNAqueous Micro Kit (Ambion). Total RNA samples were DNase-treated (Ambion), prior to cDNA synthesis using SuperScript reagents (Invitrogen). SYBRgreen qPCR was performed using 1 ng of cDNA and primers designed using Primer3 and Beacon Designer software or found using PrimerBank (http://pga.mgh.harvard.edu/primerbank/). Melt-curves and primer efficiency were determined as previously described (Hoffman, M. P., Kidder, B. L., Steinberg, Z. L., Lakhani, S., Ho, S., Kleinman, H K., and Larsen, M. (2002) Gene expression profiles of mouse submandibular gland development: FGFR1 regulates branching morphogenesis in vitro through BMP- and FGF-dependent mechanisms. Development (Cambridge, England) 129, 5767-5778). Gene expression was normalized to the housekeeping gene S29 (Rps29).

[2] = molecular target: T1, ALDH2 (Homo sapiens, UniProt P05091); assay: ALDH enzymatic assay, recombinant ALDH2; format: biochemical; details: 5 μg/ml recombinant enzyme, 10 mM acetaldehyde, 20 μM Alda-341
T1 sequence (P05091 18-517): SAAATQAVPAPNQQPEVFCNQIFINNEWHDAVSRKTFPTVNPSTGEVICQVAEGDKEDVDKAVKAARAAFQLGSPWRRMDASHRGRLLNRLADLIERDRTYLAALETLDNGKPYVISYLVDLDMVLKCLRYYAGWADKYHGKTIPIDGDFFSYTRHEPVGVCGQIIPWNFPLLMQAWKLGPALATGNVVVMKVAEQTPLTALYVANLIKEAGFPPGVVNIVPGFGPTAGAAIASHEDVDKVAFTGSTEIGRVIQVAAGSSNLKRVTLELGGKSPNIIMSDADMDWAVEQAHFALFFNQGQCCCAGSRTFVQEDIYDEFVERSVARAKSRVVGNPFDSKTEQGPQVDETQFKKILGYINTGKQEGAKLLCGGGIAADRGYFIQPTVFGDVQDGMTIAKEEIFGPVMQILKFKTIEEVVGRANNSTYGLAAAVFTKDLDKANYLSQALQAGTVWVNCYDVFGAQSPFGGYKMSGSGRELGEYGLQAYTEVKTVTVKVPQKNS
Procedure: ALDH enzymatic assay: ALDH1A1, ALDH1A2, 2, 3A1, 3A2, 4A1, 5A1, 7A1 were measured as previously described using 5 μg/ml of recombinant protein (Chen, C. H., Cruz, L. A., and Mochly-Rosen, D. (2015) Pharmacological recruitment of aldehyde dehydrogenase 3A1 (ALDH3A1) to assist ALDH2 in acetaldehyde and ethanol metabolism in vivo. Proceedings of the National Academy of Sciences of the United States of America 112, 3074-3079). […] Assays were conducted in 50 mM NaPPi buffer (pH 7.4) in the presence of 2.5 mM NAD^+ and 10 mM substrate and measured in triplicate at 25° C. Dose response curve fits and EC50's were calculated using GraphPad Prism 7 software.

[3] = 200 μM Alda-341, RT-qPCR vs vehicle control

Q: Which results are given for `C=C(C)[C@H]1CC=C(C)CC1` [Alda-341, D-limonene]?
A: localisation of c-Kit+ cells (immunofluorescence) ([1]; 200 μM Alda-341, 24 h): limited to the end buds only; expression of acinar progenitor marker Sox10 [1, 3]: Increased expression; transcript level of acinar maturation marker Aqp5 [1, 3]: increased transcript levels; transcript level of acinar maturation marker Mist1 [1, 3]: increased transcript levels; number of end buds ([1]; cultured 24 h, 100 μM and 200 μM Alda-341): dose-dependent increase; epithelial area ([1]; cultured 24 h, 100 μM and 200 μM Alda-341, normalized to vehicle control): dose-dependent increase; catalytic activity of ALDH2 [2]: did not increase

From US20190060249A1 (priority 2017, published 2019)
